Assay results published in patent US9061967B2 (priority 2010, dated 2015).
Several values for one entry are separate records, joined by “and”; a condition that tells them apart may be missing. Identical values can stand only once.

Key:
[1] = test system: cucumber downy mildew (Pseudoperonospora cubensis); assay: whole plant or invertebrate; format: in vivo; conditions: for pest or weed control at 3.125 µg/mL / pest or weed control at 12.5 µg/mL / pest or weed control at 50 µg/mL: Pseudoperonospora cubensis, 168 h, read-out: Protectant activity (%) against cucumber downy mildew in vivo
[2] = test system: rape sclertiniose (Sclerotinia sclerotiorum); format: cell-based
[3] = test system: cotton nthracnose (Colletotrichum gossypii Southw.); format: cell-based
[4] = test system: cucumber fusarium wilt (Fusarium oxysporum f. sp.); format: cell-based
[5] = test system: rice sheath blight (Rhizoctonia solani Palo); format: cell-based
[6] = test system: pear scab (Fusicladium pirina); format: cell-based
[7] = test system: rice blast (Magnaporthe grisea); assay: microbe, parasite or virus in culture; format: cell-based; conditions: for inhibition at 0.03 µg/mL / inhibition at 0.3 µg/mL: Pyricularia oryzae, read-out: Inhibition rate against rice blast (%); for Activity against rice blast in vitro (%): Table 10
[8] = test system: cucumber gray mold (Botrytis cinerea); assay: microbe, parasite or virus in culture; format: cell-based; conditions: read-out: Inhibition rate against cucumber gray mold (%)
[9] = test system: corn rust (Puccinia sorghi)

| Structure (SMILES) | pest or weed control at 3.125 µg/mL [1] | pest or weed control at 12.5 µg/mL [1] | pest or weed control at 50 µg/mL [1] | inhibition at 0.03 µg/mL [7] | inhibition at 0.3 µg/mL [7] | inhibition at 0.03 µg/mL [8] | inhibition at 0.1 µg/mL [8] | inhibition at 0.3 µg/mL [8] | other results |
| --- | --- | --- | --- | --- | --- | --- | --- | --- | --- |
| Nc1c(Cl)cc([N+](=O)[O-])cc1Cl [intermediate C] | 0% | 0% | 0% |  |  |  |  |  |  |
| Cc1c(Cl)c([N+](=O)[O-])cc([N+](=O)[O-])c1Cl [intermediate B] | 0% | 0% | 0% |  |  |  |  |  |  |
| c1ccc(Nc2ccccc2)cc1 [diphenylamine] | 0% | 0% | 0% |  |  |  |  |  |  |
| O=[N+]([O-])c1cc(C(F)(F)F)c(Cl)c([N+](=O)[O-])c1Nc1ncc(C(F)(F)F)cc1Cl [fluazinam] | 40% | 95% | 100% | 50% | 100% | 0% | 80% | 100% | Activity in vitro (%), rape sclertiniose [2]: 100% and 97% and 57%; Activity in vitro (%), cotton nthracnose [3]: 100% and 97% and 71%; Activity in vitro (%), cucumber fusarium wilt [4]: 92% and 85% and 56%; Activity in vitro (%), rice sheath blight [5]: 97% and 83% and 69%; Activity in vitro (%), pear scab [6]: 94% and 89% and 47% |
| COc1ccc(C(=CC(=O)N2CCOCC2)c2ccc(Cl)cc2)cc1OC [dimethomorph] | 35% | 80% | 100% |  |  |  |  |  |  |
| Cc1cc([N+](=O)[O-])cc([N+](=O)[O-])c1Nc1c(Cl)cc(Cl)cc1Cl [contrast ACS] | 0% | 0% | 0% | 0% | 0% | 0% | 0% | 0% | Protectant activity against cucumber downy mildew in vivo (%) ([1]; in vivo): 0%; Protectant activity (%) against corn rust in vivo [9]: 0%; Activity against rice blast in vitro (%) ([7]; 0.9 mg/L): 0%; Activity against rice blast in vitro (%) ([7]; 2.8 mg/L): 0%; Activity against rice blast in vitro (%) ([7]; 8.3 mg/L): 0%; Activity against rice blast in vitro (%) ([7]; 25 mg/L): 0% |
